Assay results taken from US20230118497A1, “PYRAZOLE-CONTAINING POLYCYCLIC DERIVATIVE INHIBITOR, PREPARATION METHOD THEREFOR AND APPLICATION THEREOF” (Shanghai Hansoh Biomedical Co., Ltd., priority 2019, published 2023).
One block for each molecule: values may come before it.

Columns and labels:
hERG potassium channel = molecular target: T1, hERG potassium channel (Homo sapiens, UniProt Q12809); assay: hERG potassium channel inhibition activity assay (Qpatch, CHO-hERG cells); assay type: cell-based; details: Qpatch whole-cell, highest test concentration 40 μM
T1 construct: expressed in transfected cells; host or cells: CHO
Experimental: Test Example 8. hERG Potassium Channel Inhibition Activity Assay
7.1.1 CHO-hERG cells were cultured in a 175 cm^2 culture flask. After the cell density reached 60-80%, the culture solution was removed. The cells were washed with 7 mL of PBS once, and dissociated with 3 mL of Detachin.
7.1.2 After completion of dissociation, the cells were neutralized with 7 mL of culture solution. The solution was centrifuged, and the supernate was removed. The cells were resuspended in 5 mL of culture solution. The cell indensity is ensured as 2˜5×10^6/mL.
Single cell sealing impedance and formation of whole-cell mode were automatically performed by Qpatch instrument. After obtaining the whole-cell recording mode, the cell was clamped at −80 mV. The cell first underwent pre-voltage of −50 mV for 50 msec, then underwent depolarization stimulation at +40 mV for 5 sec, and then underwent repolarization at −50 mV for 5 sec, and then the voltage returned to −80 mV The cell underwent the stimulation at the voltage every 15 sec. The data were recorded for 2 min, then extracellular fluid was administrated, and then the data were recorded for 5 min. Then, the administration process begun. The concentration of the test compound started from the lowest concentration, and each test concentration was administrated for 2.5 min. At least three cells (n≥3) were tested for each concentration.
4.1 20 mM mother liquor of the compound was diluted with extracellular fluid. […] of extracellular fluid was added to 5 μL of 20 mM mother liquor of the compound to obtain a concentration of 40 μM (500-fold dilution). The solution was subjected to a 3-fold serial dilution with extracellular fluid containing 0.2% DMSO to obtain a required final concentration.
This concentration of DMSO had no effect on hERG potassium channel.
The experimental data was analyzed by XLFit software.

[1] = Pharmacokinetic assay in rats; assay type: in vivo; details: male, rat, po, SD rats, p.o. 5 mg/kg, plasma, 0.5% CMC-Na (1% Tween 80); for AUC(0-t): read-out: Area under curve AUC0-t; for MRT inf: read-out: Average residence time MRT0-∞; for half-life: read-out: Half life t1/2 (converted); for Tmax: read-out: Peak time tmax; for Cmax: read-out: Plasma concentration Cmax
Experimental: Test Example 4. Pharmacokinetic Assay in Rats
SD rats were used as test animals. The pharmacokinetic behavior of the compounds of Examples was studied in rat body (plasma) by orally administration at a dose of 5 mg/kg.
Male SD rats (3 rats per group), purchased from Shanghai Jiesijie Laboratory Animal Co., LTD, with Certificate No.: SCXK (Shanghai) 2013-0006 N0.311620400001794.
5 g of hydroxyethyl cellulose (HEC, CMC-Na, viscosity: 800-1200 Cps) was weighed and dissolved in 1000 mL of purified water, followed by addition of 10 g of Tween80.
After an overnight fast, male SD rats (3 rats per group) were administered p.o. with the test compound at a dose of 5 mg/kg and a volume of 10 mL/kg.
0.2 mL of blood was taken from the jugular vein of the rat before administration and at 0, 0.5, 1, 2, 4, 6, 8 and 24 hours after administration. The samples were stored in EDTA-K2 tubes, and centrifuged for 6 minutes at 4° C., 6000 rpm to separate the plasma. The plasma samples were stored at −80° C.
1) 160 μL of acetonitrile was added to 40 μL of the plasma sample for precipitation, and then the mixture was centrifuged at 3500×g for 5 to 20 minutes.
2) After the above process, 100 μL of the supernatant was taken to analyze the concentration of the test compound by LC/MS/MS.
2.7 Liquid Chromatography Analysis • Liquid chromatography condition: Shimadzu LC-20AD pump • Mass spectrometry condition: AB Sciex API 4000 mass spectrometer • Chromatographic column: phenomenex Gemiu 5 um C18 50×4.6 mm • Mobile phase: Eluent A was 0.1% formic acid in water, and Eluent B was acetonitrile • Flow rate: 0.8 mL/min • Elution time: 0-4.0 minutes, the eluent is as follows:
The main parameters of pharmacokinetics were calculated by WinNonlin 8.2.

[2] = Metabolic stability in liver microsome (rat); assay type: in vitro ADME; details: rat liver microsome 0.5 mg/mL, compound 1 μM; for half-life at 1 μM: liver microsomes
Experimental: Test Example 5. Assay of Metabolic Stability in Liver Microsome
The objective of the experiment is to determine the stability of the compounds of the Examples in liver microsome of mouse, rat, dog and human.
Formulation of the working solution of the compound: The stock solution of the compound was added to phosphate buffer, and the final concentration was 20 μM.
Liver microsome was diluted with 100 mM phosphate buffer to obtain a final concentration of 0.625 mg/mL.
NADPH (reduced nicotinamide adenine dinucleotide phosphate) and UDPGA (uridine diphosphate glucuronic acid) were weighed respectively, followed by addition of 100 mM phosphate buffer. The final concentrations were 20 mM.
1 mg of Alamethicin was weighed, to which 200 μL of DMSO was added to obtain a 5 mg/mL solution. The solution was diluted with phosphate buffer to obtain a final concentration of 50 μg/mL.
2.5 Formulation of the reaction stop solution Stop solution: Cold acetonitrile containing 100 ng/mL labetalol hydrochloride and 400 ng/mL tolbutamide as internal standards.
400 μL of the prepared liver microsome, 25 μL of the working solution of the compound and 25 μL of Alamethicin were added to a 96-well plate successively, which was then pre-incubated at 37° C. for 10 min. 50 μL of the prepared NADPH/UDPGA was added to initiate the reaction, and the plate was incubated at 37° C. The total volume of the reaction system was 500 μL. The final contents of the components were as follows: […]

[3] = molecular target: T2, CYP450 enzyme isoform 2D6 (Homo sapiens, UniProt P10635); assay: CYP enzyme single-point inhibition assay, 2D6; assay type: in vitro ADME; details: human liver microsome, single-point method
T2 construct: single-point method using human liver microsome incubation system; from tissue; host or cells: human liver microsomes
Experimental: Test Example 7. CYP Enzyme Single-Point Inhibition Assay
The inhibition of the compounds on CYP450 enzyme isoformwas rapidly predicted by single-point method using human liver microsome incubation system.
2.5 mM NADPH: 4.165 mg of NADPH (reduced nicotinamide adenine dinucleotide phosphate) was weighed, followed by addition of 100 mM phosphate buffer to 2 mL. 0.25 mg/mL microsome solution: 4 mL of 100 mM phosphate buffer was added to 50 μL of 20 mg/mL microsome solution and mixed well.
The test compound of the Example was weighed, diluted to 10 mM with DMSO and then to 100 μM with 100 mM phosphate buffer.
1. 40 μL of liver microsome, 10 μL of substrate and 10 μL of the test compound were added to a 96-well plate and pre-incubated for 3 min.
2. 40 μL of NADPH was added.
3. 300 μL of acetonitrile stop solution containing internal standard was added at 20 min.
4. The sample was centrifuged and injected.

T2 sequence (P10635 whole entry, canonical isoform): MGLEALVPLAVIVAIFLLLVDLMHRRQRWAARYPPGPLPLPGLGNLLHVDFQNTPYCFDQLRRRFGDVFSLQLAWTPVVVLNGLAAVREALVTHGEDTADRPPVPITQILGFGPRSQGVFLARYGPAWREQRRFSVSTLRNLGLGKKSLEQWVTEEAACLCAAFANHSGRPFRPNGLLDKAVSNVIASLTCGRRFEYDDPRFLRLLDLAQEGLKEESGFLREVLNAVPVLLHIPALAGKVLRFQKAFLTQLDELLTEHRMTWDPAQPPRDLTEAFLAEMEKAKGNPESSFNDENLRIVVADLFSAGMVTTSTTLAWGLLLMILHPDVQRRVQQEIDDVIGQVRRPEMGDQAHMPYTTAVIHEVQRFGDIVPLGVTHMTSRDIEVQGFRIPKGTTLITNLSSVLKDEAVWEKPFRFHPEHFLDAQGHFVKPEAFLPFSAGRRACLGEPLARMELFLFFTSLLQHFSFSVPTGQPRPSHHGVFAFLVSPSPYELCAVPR
T1 sequence (Q12809 whole entry): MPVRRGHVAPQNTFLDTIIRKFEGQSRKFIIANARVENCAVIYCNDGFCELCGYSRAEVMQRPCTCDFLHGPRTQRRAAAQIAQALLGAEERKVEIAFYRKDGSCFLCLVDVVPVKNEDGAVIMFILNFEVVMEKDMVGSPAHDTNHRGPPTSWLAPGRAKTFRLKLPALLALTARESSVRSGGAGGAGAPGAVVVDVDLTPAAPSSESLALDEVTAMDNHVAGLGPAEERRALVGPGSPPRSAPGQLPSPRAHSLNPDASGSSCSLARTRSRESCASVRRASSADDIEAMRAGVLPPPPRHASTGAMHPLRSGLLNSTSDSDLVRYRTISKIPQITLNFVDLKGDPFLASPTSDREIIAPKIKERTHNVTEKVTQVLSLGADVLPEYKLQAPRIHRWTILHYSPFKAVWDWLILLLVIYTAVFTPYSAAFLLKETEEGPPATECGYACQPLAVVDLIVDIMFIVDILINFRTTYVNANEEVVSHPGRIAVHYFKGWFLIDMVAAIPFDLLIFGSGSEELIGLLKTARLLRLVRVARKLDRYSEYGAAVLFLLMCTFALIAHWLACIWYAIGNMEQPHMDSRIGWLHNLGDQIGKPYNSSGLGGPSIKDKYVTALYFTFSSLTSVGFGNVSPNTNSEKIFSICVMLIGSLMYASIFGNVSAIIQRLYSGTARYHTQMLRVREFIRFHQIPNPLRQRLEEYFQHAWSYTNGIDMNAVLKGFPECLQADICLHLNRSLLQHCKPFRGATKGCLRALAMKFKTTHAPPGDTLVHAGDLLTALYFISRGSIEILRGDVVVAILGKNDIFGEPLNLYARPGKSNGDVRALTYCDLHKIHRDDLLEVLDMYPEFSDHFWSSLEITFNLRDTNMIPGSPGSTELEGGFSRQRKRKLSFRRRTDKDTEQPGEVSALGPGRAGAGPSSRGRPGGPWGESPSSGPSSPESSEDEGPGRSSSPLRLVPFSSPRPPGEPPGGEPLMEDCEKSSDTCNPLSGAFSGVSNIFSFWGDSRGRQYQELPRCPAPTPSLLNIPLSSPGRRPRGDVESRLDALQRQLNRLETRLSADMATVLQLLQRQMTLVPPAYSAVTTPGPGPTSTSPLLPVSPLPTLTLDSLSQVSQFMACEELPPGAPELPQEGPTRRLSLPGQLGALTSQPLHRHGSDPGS

AUC(0-t) [1]: 21.3 µg·h/mL | MRT inf [1]: 13.6 h | half-life [1]: 11.3 h | Tmax [1]: 4 h | Cmax [1]: 2.19 µg/mL
SMILES: N#Cc1cnn2c3nc(C(F)(F)F)ccc3c(=O)n(CC(=O)Nc3ccc(F)cn3)c12 [Example 80, 2-(3-Cyano-5-oxo-8-(trifluoromethyl)pyrazolo[1,5-a]pyrido[3,2-e]pyrimidin-4(5H)-yl)-N-(5-fluoropyridin-2-yl)acetamide]
IC50 (hERG potassium channel): > 20 µM

SMILES: O=C(Cn1c(=O)c2ccc(C(F)(F)F)nc2n2nccc12)Nc1ccc(F)cn1 [Example 78, N-(5-Fluoropyridin-2-yl)-2-(5-oxo-8-(trifluoromethyl)pyrazolo[1,5-a]pyrido[3,2-e]pyrimidin-4(5H)-yl)acetamide]
half-life at 1 μM ([2]; NADPH/UDPGA): 32.7 h | Remaining (%, 60 min) [2]: 98.9% | IC50 [3]: > 100 µM | IC50 (hERG potassium channel): > 10 µM | AUC(0-t) [1]: 6.81 µg·h/mL | MRT inf [1]: 3.7 h | half-life [1]: 1.7 h | Tmax [1]: 2 h | Cmax [1]: 1.22 µg/mL

SMILES: CCc1cc2n(CC(=O)Nc3ccc(F)cn3)c(=O)c3ccc(C(F)(F)F)nc3n2n1 [Example 34, 2-(2-Ethyl-5-oxo-8-(trifluoromethyl)pyrazolo[1,5-a]pyrido[3,2-e]pyrimidin-4(5H)-yl)-N-(5-fluoropyridin-2-yl)acetamide]
half-life at 1 μM ([2]; NADPH/UDPGA): 28.9 h | Remaining (%, 60 min) [2]: 104.4% | IC50 [3]: > 100 µM | AUC(0-t) [1]: 5.78 µg·h/mL | MRT inf [1]: 6.2 h | half-life [1]: 3.5 h | Tmax [1]: 4 h | Cmax [1]: 0.904 µg/mL

SMILES: N#Cc1cc2n(CC(=O)Nc3ccc(F)cn3)c(=O)c3ccc(C(F)(F)F)nc3n2n1 [Example 68, 2-(2-Cyano-5-oxo-8-(trifluoromethyl)pyrazolo[1,5-a]pyrido[3,2-e]pyrimidin-4(5H)-yl)-N-(5-fluoropyridin-2-yl)acetamide]
Remaining (%, 60 min) [2]: 106.4% | t1/2 ([2]; NADPH/UDPGA): ∞ | IC50 [3]: > 100 µM | IC50 (hERG potassium channel): 18.4 µM | AUC(0-t) [1]: 9.85 µg·h/mL | MRT inf [1]: 3.5 h | half-life [1]: 1.8 h | Tmax [1]: 4 h | Cmax [1]: 1.88 µg/mL

SMILES: O=C(Cn1c(=O)c2ccc(C(F)(F)F)nc2n2nc(Br)cc12)Nc1ccc(F)cn1 [Example 61-A, 2-(2-bromo-5-oxo-8-(trifluoromethyl)pyrazolo[1,5-a]pyrido[3,2-e]pyrimidin-4(5H)-yl)-N-(5-fluoropyridin-2-yl)acetamide]
half-life at 1 μM ([2]; NADPH/UDPGA): 15.7 h | Remaining (%, 60 min) [2]: 102.3% | IC50 [3]: > 100 µM | IC50 (hERG potassium channel): > 10 µM | AUC(0-t) [1]: 12 µg·h/mL | MRT inf [1]: 5.8 h | half-life [1]: 8 h | Tmax [1]: 2 h | Cmax [1]: 1.55 µg/mL
